Measurements as given in US9676758B2, “1-heteroaryl-indoline-4-carboxamides as modulators of GPR52 useful for the treatment or prevention of disorders related thereto” (Arena Pharmaceuticals, Inc., priority 2015, dated 2017).

Columns and labels:
male 129Sv/Ev mice = assay: Prepulse inhibition of the startle response in mice; format: in vivo, mouse; conditions: mice with relatively low PPI; Compound 13 10 mg/kg P.O.; FIG. 25A
Method: Prepulse inhibition testing was conducted in enclosed startle chambers (Kinder Scientific StartleMonitor System, Kinder Scientific, Poway, Calif.) in which animals were placed into restrainers secured onto startle-sensing plates. A constant background white noise of 65 dB was audible in the chambers throughout testing. […]
For each animal, mean startle amplitude for each trial type during the 35-trial block was calculated, and percent prepulse inhibition (% PPI) for each prepulse intensity was calculated as the percent decrease in the mean startle amplitude in response to a given prepulse and 120 dB startle stimulus relative to the mean startle amplitude in response to the 120 dB startle stimulus alone. The % PPI was then calculated for each animal as the mean % PPI across all four prepulse intensities. […]

male Sprague-Dawley rats [1] = assay: Rat basal locomotor activity; conditions: 0.5, 1, 2, 5, 10, and 20 mg/kg P.O.
Method: Locomotor activity was assessed in a photocell monitoring caging system (Kinder Scientific MotorMonitor System, Kinder Scientific, Poway, Calif.). Each cage consisted of a standard plastic rodent cage (24×45.5 cm) placed inside a stainless steel frame. Infrared photocell beams were located across the long axis of the frame. Interruption of a photocell beam due to movement of the animal in front of a beam was recorded and used as a measure of ambulatory activity. Photocell beam interruptions were automatically recorded by a computer system. Perforated cage tops were placed on top of the test enclosures during testing.
Activity was then measured for the following 30 minutes. Animals were naïve to the testing apparatus prior to performing the test. Activity is expressed as the total number of ambulations over the 30 minutes of locomotor testing (i.e., 30-60 minutes post-injection).

male Sprague-Dawley rats [2] = assay: Catalepsy (vertical grid) in rats; format: in vivo, rat; conditions: Compound 13 5-100 mg/kg P.O., haloperidol 0.1, 0.3, or 1 mg/kg S.C., 45 minutes post-dose
Method: Catalepsy is used as a model for detecting extrapyramidal side effects of antipsychotic drugs. […] The rats were removed from home cages 45 minutes later and placed on a vertical stainless steel grid, and the latency to move both forepaws from their starting position was measured for a maximum of 30 seconds. The test was repeated three times consecutively.
Catalepsy is expressed as the average latency to move both forepaws over the three trials. Latency increased in the rats administered haloperidol (see FIG. 27B), but was unchanged in rats administered Compound 13 (see FIG. 27A).

Q: `O=C(NCCO)c1cccc2c1CCN2c1cc(Cc2cccc(C(F)(F)F)c2)ccn1` [Compound 13, N-(2-Hydroxyethyl)-1-(4-(3-(trifluoromethyl)benzyl)pyridin-2-yl)indoline-4-carboxamide] was tested. Which “basal % PPI in 'poor performers'” value (male 129Sv/Ev mice) did it give?
A: increased

Q: What about the basal locomotor activity (male Sprague-Dawley rats [1]) of the same compound?
A: significant reduction in basal locomotor activity was only seen at the highest dose

Q: And the “catalepsy: average latency to move both forepaws” value (male Sprague-Dawley rats [2])?
A: unchanged
